This test concerns mice (C57BL/6). Put plainly: Motility of stomach and small intestine (charcoal transit, GI motility). The settings on record: 0.3 mg/kg or 3 mg/kg intraperitoneal; 30 minutes after oral charcoal; vs vehicle control mice; FIG. 1. Type of test: in vivo.

Protocol: At the same time, control mice (vehicle) to which only a vehicle was administered were prepared, and the same test was carried out using these mice. The motility of stomach and small intestine was measured as follows. That is, charcoal powder was suspended in a 0.5% methyl cellulose solution and the resulting suspension was orally administered to the mice. After 30 minutes, the distance that the charcoal entering into the stomach traveled in the intestinal tract was measured by dissection. At the same time, the total length of the small intestine from the pyloric portion of stomach to the beginning of the cecum was also measured, and the ratio (%) of the distance that the charcoal traveled to the total length of the small intestine was plotted in a graph as a GI (gastrointestinal) motility.

With neuropeptide Y [NPY], the “GI (gastrointestinal) motility: ratio of distance the charcoal traveled to total length of small intestine” value is “lower than that of the control mice”.
